Experimental data reported in PMC8204306 (ACS Infectious Diseases, 2021).

Target: EchA19 (Mycobacterium tuberculosis, UniProt O53561)
Sequence (O53561 whole entry): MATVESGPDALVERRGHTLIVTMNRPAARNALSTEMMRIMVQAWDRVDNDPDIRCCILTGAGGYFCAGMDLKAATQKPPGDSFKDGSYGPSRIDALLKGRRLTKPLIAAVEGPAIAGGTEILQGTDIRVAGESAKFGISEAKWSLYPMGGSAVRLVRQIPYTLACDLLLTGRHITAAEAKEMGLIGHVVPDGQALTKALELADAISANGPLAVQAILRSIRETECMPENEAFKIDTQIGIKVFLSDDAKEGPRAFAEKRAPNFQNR

C[C@H](/C=C/C(=O)SCCNC(=O)CCNC(=O)[C@H](O)C(C)(C)COP(=O)(O)OP(=O)(O)OC[C@H]1O[C@@H](n2cnc3c(N)ncnc32)[C@H](O)[C@@H]1OP(=O)(O)O)[C@H]1CC[C@H]2[C@@H]3CCC4=CC(=O)CC[C@]4(C)[C@H]3CC[C@]12C [3-OCDO-CoA]
hydration product identified by MALDI MS and 1H NMR: both EchA19 and ChsH3 performed the hydration reaction on 3-OCDO-CoA
